Measured values as given in patent US9826773B2, “Brazzen multiple variants of increased sweetness, and production method for same” (CHUNG-ANG UNIVERSITY INDUSTRY—ACADEMIC COOPERATION …, priority 2012, dated 2017).

Assays:
[1] = system: human gustatory system; test: Measurement of sweetness activity using the human gustatory system (threshold of initially sensing sweetness); assay type: in vivo; settings: for Level of sweetness compared to sucrose (g/g): mass basis; for Level of sweetness compared to sucrose (g/g) / Level of sweetness compared to sucrose (molecular): sucrose = 1; for Level of sweetness compared to sucrose (molecular): molar basis; for times as sweet as sucrose in the same mass: rounded values of the text; for times as sweet as the wild-type brazzein in the same mass: relative to wild-type brazzein
Method: Since brazzein is not a sugar but a protein, sweetness may not be measured using a saccharimeter. Consequently, the activity was measured using the human gustatory system. Since the threshold values of initially sensing sweetness are different per person, the activity was measured by comparing the concentrations of initially sensing sweetness between a sugar solution and a brazzein solution. The subjects were composed of 10 men and 10 women, who were trained in advance. First, the standard sugar solution was sequentially tasted, and the concentration of initially sensing sweetness was checked. Brazzein was dissolved in distilled water (10.0 mg/mL) and diluted to set the concentration to 1 to 20 ng/mL, and the sweetness of the solution was tasted and the concentration of sensing sweetness as the threshold value was checked to measure the relative activity of sweetness among sugar, wild-type brazzein, and a brazzein variant. Specifically, the activity was measured as follows. Before the activity was measured, the subject was informed in advance of the test date and time to sense the taste in tiptop conditions, and was prohibited from drinking alcohol the day before the test date and eating food immediately before the test. The subject washed the palate with bottled water prepared, and then a sample according to the concentration of each kind was tasted in each of an amount of 100 μl sequentially from a low concentration to a high concentration. The resulting data were obtained by discarding dubious values through the Q test, minimizing the standard deviation, and calculating the average.

[2] = cited from earlier work; for thermal stability: background statement
[3] = same threshold expressed in molar concentration
[4] = trained panel of 10 men and 10 women, concentration of initially sensing sweetness, 100 μl samples tasted from low to high concentration

Row | Molecule | Level of sweetness compared to sucrose (g/g) [1] | Level of sweetness compared to sucrose (molecular) [1] | times as sweet as sucrose in the same mass [1] | times as sweet as the wild-type brazzein in the same mass [1] | Threshold value of sweetness experiment [1, 3] | Threshold value of sweetness experiment [1, 4] | solubility and pH stability in water ([2]; Gao et al. 1999) | thermal stability [2]
1 | K4D_H30R_E35D_E40D: brazzein multiple variant, 4th Lys to Asp in tertiary variant H30R_E35D_E40D, SEQ ID NO. 17 (DKCDKVYENYPVSKCQLANQCNYDCKLAKRARSGDCFYDDKRNLQCICDYCEY; Brazzein Variant) | 1,333,333 | 24545600 | 1,300,000 times | 1,670 times | 0.00236 µM | 0.0000015 g (100 mL)^−1 |  | 
2 | K4E_H30R_E35D_E40A: brazzein multiple variant, 4th Lys to Glu in tertiary variant H30R_E35D_E40A, SEQ ID NO. 15 (DKCEKVYENYPVSKCQLANQCNYDCKLAKRARSGDCFYDAKRNLQCICDYCEY; Brazzein Variant) | 2,000,000 | 36708861 | 2,000,000 times | 2,500 times | 0.00158 µM | 0.0000010 g (100 mL)^−1 |  | 
3 | K4E_H30R_E35D_E40K: brazzein multiple variant, 4th Lys to Glu in tertiary variant H30R_E35D_E40K, SEQ ID NO. 12 (DKCEKVYENYPVSKCQLANQCNYDCKLAKRARSGDCFYDKKRNLQCICDYCEY; Brazzein Variant) | 1,666,666 | 30812500 | 1,700,000 times | 2,080 times | 0.00188 µM | 0.0000012 g (100 mL)^−1 |  | 
4 | K4D_H30R_E35D_E40A: brazzein multiple variant, 4th Lys to Asp in tertiary variant H30R_E35D_E40A, SEQ ID NO. 14 (DKCDKVYENYPVSKCQLANQCNYDCKLAKRARSGDCFYDAKRNLQCICDYCEY; Brazzein Variant) | 2,000,000 | 36708861 | 2,000,000 times | 2,500 times | 0.00158 µM | 0.0000010 g (100 mL)^−1 |  | 
5 | K4E_H30R_E35D_E40D: brazzein multiple variant, 4th Lys to Glu in tertiary variant H30R_E35D_E40D, SEQ ID NO. 18 (DKCEKVYENYPVSKCQLANQCNYDCKLAKRARSGDCFYDDKRNLQCICDYCEY; Brazzein Variant) | 1,250,000 | 23062250 | 1,250,000 times | 1,560 times | 0.00251 µM | 0.0000016 g (100 mL)^−1 |  | 
6 | K4R_H30R_E35D_E40D: brazzein multiple variant, 4th Lys to Arg in tertiary variant H30R_E35D_E40D, SEQ ID NO. 19 (DKCRKVYENYPVSKCQLANQCNYDCKLAKRARSGDCFYDDKRNLQCICDYCEY; Brazzein Variant) | 1,666,666 | 30860187 | 1,700,000 times | 2,080 times | 0.00188 µM | 0.0000012 g (100 mL)^−1 |  | 
7 | K4R_H30R_E35D_E40A: brazzein multiple variant, 4th Lys to Arg in tertiary variant H30R_E35D_E40A, SEQ ID NO. 16 (DKCRKVYENYPVSKCQLANQCNYDCKLAKRARSGDCFYDAKRNLQCICDYCEY; Brazzein Variant) | 2,857,143 | 52727273 | 2,900,000 times | 3,570 times | 0.0011 µM | 0.0000007 g (100 mL)^−1 |  | 
8 | K4R_H30R_E35D_E40K: brazzein multiple variant, 4th Lys to Arg in tertiary variant H30R_E35D_E40K, SEQ ID NO. 13 (DKCRKVYENYPVSKCQLANQCNYDCKLAKRARSGDCFYDKKRNLQCICDYCEY; Brazzein Variant) | 2,000,000 | 37131600 | 2,000,000 times | 2,500 times | 0.00156 µM | 0.0000010 g (100 mL)^−1 |  | 
9 | Brazzein: sweetener protein extracted from the fruit of Pentadiplandra brazzeana (Baillon) (QDKCKKVYENYPVSKCQLANQCNYDCKLDKHARSGECFYDEKRNLQCICDYCEY; UniProt P56552 1-54, looked up) |  |  |  |  |  |  | very high solubility and pH stability | very high thermal stability
10 | K4R_H30R_E35D_E40R: brazzein multiple variant, 4th Lys to Arg in tertiary variant H30R_E35D_E40R, SEQ ID NO. 22 (DKCRKVYENYPVSKCQLANQCNYDCKLAKRARSGDCFYDRKRNLQCICDYCEY; Brazzein Variant) | 2,000,000 | 37284000 | 2,000,000 times | 2,500 times | 0.00156 µM | 0.0000010 g (100 mL)^−1 |  | 
11 | Monellin |  |  |  |  |  |  |  | low thermal stability
12 | WT-Brazzein: wild-type brazzein, molecular weight 6501 in Table 3 (QDKCKKVYENYPVSKCQLANQCNYDCKLDKHARSGECFYDEKRNLQCICDYCEY; UniProt P56552 1-54, looked up) [reference compound] | 800 | 15,082 |  |  | 3.846 µM | 0.0025 g (100 mL)^−1 |  | 
13 | K4E_H30R_E35D_E40R: brazzein multiple variant, 4th Lys to Glu in tertiary variant H30R_E35D_E40R, SEQ ID NO. 21 (DKCEKVYENYPVSKCQLANQCNYDCKLAKRARSGDCFYDRKRNLQCICDYCEY; Brazzein Variant) | 1,818,181 | 33761273 | 1,800,000 times | 2,270 times | 0.00172 µM | 0.0000011 g (100 mL)^−1 |  | 
14 | OC[C@H]1O[C@@](CO)(O[C@H]2O[C@H](CO)[C@@H](O)[C@H](O)[C@H]2O)[C@@H](O)[C@@H]1O [Sucrose, reference compound] | 1 | 1 |  |  | 58,000 μM | 2.0 g (100 mL)^−1 |  | 
15 | K4D_H30R_E35D_E40R: brazzein multiple variant, 4th Lys to Asp in tertiary variant H30R_E35D_E40R, SEQ ID NO. 20 (DKCDKVYENYPVSKCQLANQCNYDCKLAKRARSGDCFYDRKRNLQCICDYCEY; Brazzein Variant) | 1,818,181 | 33687455 | 1,800,000 times | 2,270 times | 0.00172 µM | 0.0000011 g (100 mL)^−1 |  | 
16 | K4D_H30R_E35D_E40K: brazzein multiple variant, 4th Lys to Asp in tertiary variant H30R_E35D_E40K, SEQ ID NO. 11 (DKCDKVYENYPVSKCQLANQCNYDCKLAKRARSGDCFYDKKRNLQCICDYCEY; Brazzein Variant) | 1,598,481 | 28379848 | 1,500,000 times | 1,920 times | 0.00204 µM | 0.0000013 g (100 mL)^−1 |  | 
